{"source": "paper PMC6747274", "about": "“Multifunctional Peptides from Spanish Dry-Cured Pork Ham: Endothelial Responses and Molecular Modeling Studies” (International Journal of Molecular Sciences, 2019)", "key": {"[1]": {"test_system": "IL-6 mRNA, EA.hy926 cells", "assay": "IL-6 mRNA expression by RT-PCR in EA.hy926 cells", "type": "cell-based, human", "description": "(§1) EA.hy926 cells, the hybrid human umbilical vein endothelial cell line, were obtained from the American Type Culture Collection (ATCC® CRL2922™, Rockville, MD, USA). Cells were cultured in high glucose Dulbecco’s Modified Eagle’s Medium (DMEM), containing 10% heat-inactivated fetal bovine serum (FBS, Biowest, Riverside, CA, USA) and 50 U/mL of penicillin and 50 µg/mL streptomycin (Sigma Aldrich Chemical Co., Saint Louis, MO, USA). Cells were grown in 5% CO2 in a humidified air incubator at 37 °C. Subculture was performed when 90% confluence was reached.\n(§2) EA.hy926 were seeded in six-well plates at 0.25 × 10^6 cells/well in DMEM supplemented with 5% FBS. Cells were treated with 300 µM of each peptide for 16 h. Then, 100 ng/mL TNF-α or 300 µM H2O2 were added for an additional 6 h or 24 h, respectively.\n(§3) Total RNA was extracted from EA.hy926 cells using 300 µL Trisure™ (Bioline, Taunton, MA, USA) reagent and Direct-zol™ RNA MiniPrep (Zymo Research Irvine, Irvine, CA, USA) according to the manufacturer’s protocol. […] The mRNA levels of the target genes were quantified by RT-PCR using SensiFAST SYBER Hi-ROX Kit (Bioline, Taunton, MA, USA) with StepOnePlus Real-Time PCR System (Applied Biosystems, Foster City, CA, USA). […]\n(§4) The relative quantification of gene expression was determined by the comparative fold change […] method. […]"}, "[2]": {"test_system": "eNOS mRNA, EA.hy926 cells", "assay": "eNOS mRNA expression by RT-PCR in EA.hy926 cells", "type": "cell-based, human", "description": "as §1, §2\n(§5) Total RNA was extracted from EA.hy926 cells using 300 µL Trisure™ (Bioline, Taunton, MA, USA) reagent and Direct-zol™ RNA MiniPrep (Zymo Research Irvine, Irvine, CA, USA) according to the manufacturer’s protocol. Total RNA was reverse-transcribed into complementary DNA (Sensifast cDNATM Synthesis kit, Bioline, Taunton, MA, USA). The mRNA levels of the target genes were quantified by RT-PCR using SensiFAST SYBER Hi-ROX Kit (Bioline, Taunton, MA, USA) with StepOnePlus Real-Time PCR System (Applied Biosystems, Foster City, CA, USA). Briefly, 5 µL of 1:5 diluted cDNA was added to the qPCR reaction containing 10 μL 2X SensiFAST Mix and 400 nM of each primer in a total volume of 20 μL.\n(§6) Specific and validated primers for human glyceraldehyde-3-phosphate dehydrogenase (GADPH), intercellular adhesion marker-1 (ICAM-1), vascular cell adhesion marker-1 (VCAM-1), endothelial nitric oxide synthase (eNOS), interleukin 6 (IL-6), catalase, SOD (Super Oxide Dismutase), NADPH (Nicotinamide Adenine Dinucleotide Phosphate oxidase) and Bax (proapoptosis regulator) genes were used (Sigma-Aldrich Chemical Co., Saint Louis, MO, USA). […]\nas §4"}, "EA.hy926 cells": {"test_system": "EA.hy926 cells", "assay": "Annexin V / propidium iodide apoptosis and necrosis by FACS", "type": "cell-based, human", "settings": "300 µM H2O2 alone, three independent experiments, mean ± SD", "description": "as §2\nApoScreen Annexin V Apoptosis Kit-FITC (Southern Biotech, Birmingham, AL, USA) was used to detect the apoptosis rate. After the co-incubation of synthetic peptides and 300 µM H2O2, 0.4 × 10^6 cells were detached and washed in cold PBS, then resuspended in 100 µL Annexin V binding buffer and treated following the manufacturer’s protocol. Annexin V-fluorescein isothiocyanate (FITC) binding was assessed in FL1 channel simultaneously with propidium iodide (FL2 channel). This test discriminates among intact cells (FITC−/PI−), apoptotic cells (FITC+/PI−), and necrotic cells (FITC+/PI+). Assays were performed in triplicate (Table S1)."}, "BAX mRNA, EA.hy926 cells": {"test_system": "BAX mRNA, EA.hy926 cells", "assay": "BAX mRNA expression by RT-PCR in oxidative conditions", "type": "cell-based, human", "settings": "300 µM H2O2 alone, 24 h; p = 0.02", "description": "as §2\nas §5, with “μL. […]” for “μL.”\nas §4"}, "[3]": {"test_system": "protein carbonylation, EA.hy926 cells", "assay": "Protein carbonylation (Oxyblot immunoblotting)", "type": "cell-based, human", "settings": "300 µM H2O2 alone, 30 min", "description": "Protein carbonyl content is the most general and well-used biomarker of severe oxidative protein damage. Cel ls were treated with synthetic pepti des for 16 h before adding 300 µM H2O2 and leaving for additional 30 min. Protein carbonyl groups level s wer e determined by immuno blotting using the Oxyblot Protein Oxidation Detecti on Kit (Millipore Merck, Temecul a, CA, USA) according to the manufacturer’s protocol. PVDF membranes were blocked with 1% BSA in PBS–0.05% Tween 20 (v/v) (PBS-T) for 1 h at room temperature. The blots were incubated overnight at 20 °C with the polyclonal antibody. Subsequently, blots were washed (3–5 times) with PBS-T and incubated with goat anti-rabbit IgG/HRP c onjugate (1∶300 dilution in PBS/BSA) (Sigma-Al drich Chemical Co., Saint Louis, MO, USA) for 1 h at room temperature. […] In this condition, no signal was detected in the PVDF membr anes (data no t shown). The e mitted chemiluminescent signals wer e detected using a di gital imaging system (Im ageQuant LAS500, Thermo FisherScientific Inc., Rockford, IL, USA) after automatic exposition time. Quantitation of the densitometry plots for chemiluminescence detecti on was c arried out using ImageJ software for the analysis of 1D gels. Peaks were drawn from the di stinct western-blot bands, the area were calculated and normalized to co ntrol conditions."}, "human ACE": {"target": "human ACE (Homo sapiens, UniProt P12821)", "sequence (P12821 30-1306)": "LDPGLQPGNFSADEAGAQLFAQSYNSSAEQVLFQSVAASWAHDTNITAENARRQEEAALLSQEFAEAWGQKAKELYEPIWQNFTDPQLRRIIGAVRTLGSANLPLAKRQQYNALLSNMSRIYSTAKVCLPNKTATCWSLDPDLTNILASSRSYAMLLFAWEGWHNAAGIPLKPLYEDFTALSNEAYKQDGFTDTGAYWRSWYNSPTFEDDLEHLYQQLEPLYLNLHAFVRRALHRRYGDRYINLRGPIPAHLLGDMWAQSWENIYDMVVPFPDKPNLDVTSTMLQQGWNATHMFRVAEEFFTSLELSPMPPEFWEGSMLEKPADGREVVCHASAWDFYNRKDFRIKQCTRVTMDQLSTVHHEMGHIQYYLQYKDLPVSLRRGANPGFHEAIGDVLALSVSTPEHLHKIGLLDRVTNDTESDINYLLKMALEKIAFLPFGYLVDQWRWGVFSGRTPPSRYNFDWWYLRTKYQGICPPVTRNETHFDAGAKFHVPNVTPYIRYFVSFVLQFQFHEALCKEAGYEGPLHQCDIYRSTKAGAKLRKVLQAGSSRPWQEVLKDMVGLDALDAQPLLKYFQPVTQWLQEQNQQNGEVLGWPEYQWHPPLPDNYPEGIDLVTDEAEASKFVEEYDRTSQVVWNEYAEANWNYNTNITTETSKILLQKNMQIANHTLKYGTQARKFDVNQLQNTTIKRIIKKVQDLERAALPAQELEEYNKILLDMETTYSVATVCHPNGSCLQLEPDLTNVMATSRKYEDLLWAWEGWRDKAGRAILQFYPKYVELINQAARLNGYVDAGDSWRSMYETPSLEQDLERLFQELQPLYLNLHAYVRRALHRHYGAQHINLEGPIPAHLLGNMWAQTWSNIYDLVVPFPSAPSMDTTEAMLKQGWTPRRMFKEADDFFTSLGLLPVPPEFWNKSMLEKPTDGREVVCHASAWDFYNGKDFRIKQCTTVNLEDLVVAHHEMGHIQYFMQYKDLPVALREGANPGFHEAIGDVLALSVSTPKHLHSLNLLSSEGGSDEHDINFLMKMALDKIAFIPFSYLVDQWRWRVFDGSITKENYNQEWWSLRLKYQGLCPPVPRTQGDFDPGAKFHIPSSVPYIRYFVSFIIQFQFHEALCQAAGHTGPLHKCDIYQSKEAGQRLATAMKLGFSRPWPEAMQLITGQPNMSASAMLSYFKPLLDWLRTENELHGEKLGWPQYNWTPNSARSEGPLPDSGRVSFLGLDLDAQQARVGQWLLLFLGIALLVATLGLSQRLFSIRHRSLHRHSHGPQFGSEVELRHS", "assay": "Human ACE inhibition assay (lysate of ACE-transfected EA.hy926 cells, HHL substrate, HPLC)"}, "[4]": {"test_system": "ICAM-1 mRNA, EA.hy926 cells", "assay": "ICAM-1 mRNA expression by RT-PCR in EA.hy926 cells", "type": "cell-based, human", "settings": "100 ng/mL TNF-α alone, 6 h; p < 0.05", "description": "as §1, §2, §3, §4"}, "[5]": {"test_system": "VCAM-1 mRNA, EA.hy926 cells", "assay": "VCAM-1 mRNA expression by RT-PCR in EA.hy926 cells", "type": "cell-based, human", "settings": "100 ng/mL TNF-α alone, 6 h; p < 0.05", "description": "as §1, §2, §5, §6, §4"}, "[6]": {"test_system": "ICAM-1 surface expression, EA.hy926 cells", "assay": "ICAM-1 surface expression by flow cytometry (MFI)", "type": "cell-based, human", "description": "as §1, §2\nTo measure adhesion molecule content in human endothelial cells by flow cytometry, the cell monolayer was detached and fixed before immunofluorescence labelling. The following antibodies were used per sample: 20 µL anti-ICAM-1/CD54-phycoerythrin (PE) (clone HA58, BD Biosciences, Franklin Lakes, NJ, USA) and 5 µL anti-VCAM-1/CD106-PerCP-Cy5.5 (clone 51–10C9; BD Biosciences, San Jose, CA, USA), according to the manufacturer’s protocol. Stained cells (10,000 events) were examined by flow cytometry (FACS Calibur, Becton Dickinson, Mountain View, CA, USA) in a simultaneous two-color analysis with FL2 (PE) and FL3 (PerCP-Cy5.5) channels. Markers were set according to the negative controls to quantify the percentage of positively stained cells. Mean Fluorescence Intensity (MFI) was calculated for each antigen (MFI of total stained cells-MFI of negative control cells)."}, "[7]": {"test_system": "VCAM-1 surface expression, EA.hy926 cells", "assay": "VCAM-1 surface expression by flow cytometry", "type": "cell-based, human", "settings": "100 ng/mL TNF-α alone", "description": "as §1, §2\nTo measure adhesion molecule content in human endothelial cells by flow cytometry, the cell monolayer was detached and fixed before immunofluorescence labelling. […] Markers were set according to the negative controls to quantify the percentage of positively stained cells. Mean Fluorescence Intensity (MFI) was calculated for each antigen (MFI of total stained cells-MFI of negative control cells)."}, "[8]": {"test_system": "ICAM-1 protein, EA.hy926 cells", "assay": "Intracellular ICAM-1 protein by western blot", "type": "cell-based, human", "settings": "100 ng/mL TNF-α alone", "description": "as §2\nSupplementary Material and Methods\n1.1. Human ACE Inhibitio n Assa y\nBefore transfection, the endothelial ACE expressio n level was very low and the p roduct of the enzymatic reaction undete ctable, and so a recombinant construct e ncodi ng the Myc-Tag fused to the ACE ge ne was used. T o overexpress the ACE enzyme, EA.hy926 cel ls were seeded in 24-well plates at 80,000 cells/well and transiently transfec ted with a human Ace ORF mammali an expression plasmid (Sinobiological, Beijing, China) using trans-it X2 reagent ( Myrus®, Madi son, […]\nWisconsin, USA). […] The effi ciency of […]\ntransfecti on was checked by immunofluorescence. Briefly, 48 h post-transfection, cells were fixed with 4% paraformaldehyd e in culture medi um for 15 min at room temperatur e, blocked with 1% bo vine seru m albumin (BSA) in phosph ate buffer for 30 min followed by 0.2% sapo nin for 30 min to permeabil ize the membr ane. […]\nThe mRNA level s of the target genes (ICAM-1, VCAM-1, IL-6, eNOS, SOD, catal ase, NADPH, BAX) were quantified by RT-PCR using Se nsiFAST SYBER Hi-ROX Kit (Bioline, Taunton, USA) with StepOnePlus Real-Time PCR Sy stem (Appl ied Bi osystems, Foster City, CA, USA) using speci fi c and vali dated pri mers (Si gma-Al drich Chemical Co., Saint Louis, MO, USA).\nThe tetr azolium assay (MTT) was used to estimate the cel l viability in the presence of synthetic pepti des (up to 600 µM) and 300 µM H2O2. […] The formazan crystals formed in the intact cel ls were dissol ved in 200 µL dimethyl sulfoxide (DMSO) for 30 min and the absorbance was measured in a micro plate reader at 570 nm and 620 nm of reference. Results wer e calculated as cel l viability (%) = average optic density (OD) of wells/ave rage OD of control wells. […]"}, "[9]": {"test_system": "inflammatory markers (IL-6 and eNOS)", "settings": "spontaneous hypertensive rats, DNA microarray; cited from earlier work", "excerpt": "In fact, multifunctional peptides interfere with more than one biological pathway, such as NO production, oxidative stress, and inflammation. […] Our interest in the use of an in vitro model of endothelial dysfunction was to further understand the reg ..."}, "[10]": {"settings": "100 ng/mL TNF-α alone, 6 h, p < 0.05"}}, "note": "Values joined by “and” are separate entries in the source; they are usually repeats but may differ in a detail not shown here. Equal entries are not always repeated. “Also recorded” adds a separate entry of the source. Where no end group is shown, it is not given here.", "data": [{"molecule": "OO", "note": "[H2O2, reference compound]", "values": [{"measurement": "IL-6 mRNA expression upregulation", "setting": "[1]; 300 µM H2O2 alone, 24 h, p = 0.001", "value": 1.84, "unit": "fold"}, {"measurement": "eNOS mRNA expression increase", "setting": "[2]; 300 µM H2O2 alone, 24 h, p = 0.01", "value": 3.3, "unit": "fold"}, {"measurement": "Necrosis (AnV+/PI+), % cells", "setting": "EA.hy926 cells; p = 0.01 vs control (1.45 ± 0.24)", "value": "18.56 ± 3.38% and 18%"}, {"measurement": "Apoptosis (AnV+/PI-), % cells", "setting": "EA.hy926 cells; p = 0.03 vs control (0.90 ± 0.36)", "value": "10.37 ± 1.33% and 10%"}, {"measurement": "BAX expression increase", "setting": "BAX mRNA, EA.hy926 cells", "value": 1.5, "unit": "fold"}, {"measurement": "protein carbonylation level", "setting": "[3]", "value": "significantly increased"}]}, {"molecule": "KPGRP [BP3]", "values": [{"measurement": "IC50", "setting": "human ACE", "value": "486 ± 43.5", "unit": "µM"}]}, {"molecule": "TNF-α", "values": [{"measurement": "ICAM-1 mRNA expression vs control", "setting": "[4]", "value": "increased"}, {"measurement": "VCAM-1 mRNA expression vs control", "setting": "[5]", "value": "increased"}, {"measurement": "IL-6 mRNA expression vs control", "setting": "[1]; [10]", "value": "increased"}, {"measurement": "eNOS mRNA expression vs control", "setting": "[2]; [10]", "value": "decreased"}, {"measurement": "ICAM-1 MFI", "setting": "[6]; 100 ng/mL TNF-α alone, six independent experiments, mean ± SD, p = 0.0003 vs control (71.36 ± 8.31)", "value": "1271.91 ± 158.54"}, {"measurement": "ICAM-1 MFI on cell surface (in words)", "setting": "[6]; TNF-α alone vs control, p = 0.0003", "value": "increase"}, {"measurement": "VCAM-1 surface staining after TNF-α", "setting": "[7]", "value": "undetected; also recorded: hardly detectable"}, {"measurement": "expression of 82–85 kDa protein corresponding to ICAM-1 (western blot)", "setting": "[8]", "value": "induced"}]}, {"molecule": "KPVAAP [BP1]", "values": [{"measurement": "IC50", "setting": "human ACE", "value": "59.2 ± 3.8", "unit": "µM"}]}, {"molecule": "Val-Pro-Pro [VPP, milk-derived peptide]", "values": [{"measurement": "inflammatory markers (IL-6 and eNOS)", "setting": "[9]", "value": "decrease in inflammatory markers (IL-6 and eNOS)"}]}, {"molecule": "Ile-Pro-Pro [IPP, milk-derived peptide]", "values": [{"measurement": "inflammatory markers (IL-6 and eNOS)", "setting": "[9]", "value": "decrease in inflammatory markers (IL-6 and eNOS)"}]}]}
